Reference: patent publication US8536343B2, “Arylamidine derivative, salt thereof and antifungal agent containing those” (Toyama Chemical Co., Ltd., priority 2005, dated 2013)

Tests used:
human CYP2C19 = target: T1, human CYP2C19 (Homo sapiens, UniProt P33261); experiment: Inhibitory effect on CYP2C19; type: in vitro ADME; conditions: microsome from insect cells expressing human CYP2C19, dibenzylfluorescein, 37° C. 30 min, 72 to 0.0329 μmol/L
T1 construct: host or cells: insect cells (microsomes)
Method: (§1) Inhibitory effects of the compound of Example 3 and Comparative Compound 1 on human hepatic drug-metabolizing enzyme CYP2C19 were compared. A microsome prepared from insect cells expressing human CYP2C19 was used. Dibenzylfluorescein was used as a substrate. The reaction was conducted in a phosphate buffer solution (100 mmol/L, pH 7.4) including final concentrations of 15 nmol/L for the enzyme, 1.0 μmol/L for the substrate, 1.55 mmol/L for nicotinamide adenine dinucleotide phosphate oxidized form (NADP+), 3.3 mmol/L for glucose-6-phosphate, 3.3 mmol/L for magnesium chloride and 0.4 Units/mL for glucose-6-phosphate dehydrogenase (G6PDH). The concentrations of the respective compounds in the reaction solution were prepared in a 3-fold dilution series with a final concentration range of 72 to 0.0329 μmol/L. The reaction solutions were incubated at 37° C. for 30 min. Then the reaction was terminated by a 2 mol/L sodium hydroxide aqueous solution, and the reactant was further incubated at 37° C. for 2 hours. The enzyme activity was determined by measuring fluorescence with wavelength of 535 nm using excitation wavelength of 485 nm. The inhibitory effect was represented as IC50. Tranylcypromine was used as a positive control.

human CYP3A4 = target: T2, human CYP3A4 (Homo sapiens, UniProt P08684); experiment: Inhibitory effect on CYP3A4; type: in vitro ADME; conditions: microsome from insect cells expressing human CYP3A4, dibenzylfluorescein, 37° C. 15 min, 72 to 0.0329 μmol/L
T2 construct: host or cells: insect cells (microsomes)
Method: as §1, with “CYP3A4” for “CYP2C19”, “2.5” for “15”, “15” for “30”, “solution” for “reactant”, “expressed” for “represented”, “Clotrimazole” for “Tranylcypromine”

Vero cells = experiment: Growth inhibition test on Vero cells (XTT); type: cell-based; conditions: 50 μg/mL, 3 days culture, XTT absorbance versus control
Method: As Test Compounds, the compounds of Example 1 and Example 2 and Comparative Compound 1 were used.
The cytotoxicity of the compounds was evaluated using Vero cells. The respective Test Compounds were dissolved in dimethylsulfoxide (DMSO) to prepare solutions at 10 mg/mL. The solutions were diluted with E′MEM with 10% FBS to a final concentration of 50 μg/mL and placed onto a 96-well plate. The cells were suspended in E′MEM with 10% FBS and seeded onto the 96-well plate at 3000 cells/well and then cultured in a CO2 incubator at 37° C. for 3 days. The growth of Vero cells was evaluated by an assay using 2,3-bis-(2-methoxy-4-nitro-5-sulfophenyl)-5-[(phenylamino)carbonyl]-2H-tetrazolium (inner salt) monosodium salt (“XTT”). Namely, an XTT solution containing 1 mg/mL of XTT and 25 μmol/L of phenazine methosulfate (PMS) was added to each well. After incubating in a CO2 incubator for 2 hours, the absorbance at 450 nm (reference at 655 nm) of the respective wells was measured by a microplate reader. The T/C (%) was calculated from the absorbance ratios of the control (without the Compound) and the respective wells.

[1] = tested on: Aspergillus fumigatus IFM46895; experiment: Murine Aspergillus infection model (oral administration); type: in vivo; conditions: cyclophosphamide-compromised male mice; 10 mg/kg orally, 7 times; observed 21 days after infection
Method: As Test Compounds, the compound of Example 3 and Comparative Compound 1 were used.
(§2) Spores of Aspergillus fumigatus IFM46895 were cultured on a potato dextrose agar medium at 30° C. for a week. The recovered spores were suspended in a sterile physiological saline solution containing 0.05% Tween 80, which was then diluted to prepare an inoculum solution.
(§3) Male mice (4 week-old, 5 mice/group) were administered intraperitoneally with 200 mg/kg of cyclophosphamide 4 days before infection and 100 mg/kg on the following day after the infection to obtain transient compromised condition. Each 0.2 mL of the inoculum solution was inoculated into the tail vein of each mouse to induce infection (about 1×10^5 CFU/mouse). The Test Compounds were dissolved in a small amount of 0.1 mol/L hydrochloric acid, and the solution was diluted with a sterile distilled water to obtain a 1 mg/mL solution. The solution was administered orally at the dose of 10 mL/kg body weight of mouse (10 mg/kg body weight). The administrations were conducted once 2 hours after the infection and once daily for the following 6 days, totaling 7 times. To a group receiving no Test Compounds, an equal amount of a sterile physiological saline solution was administered. Viability of the mice was observed and recorded for 21 days after infection.

human CYP2D6 = target: T3, human CYP2D6 (Homo sapiens, UniProt P10635); experiment: Inhibitory effect on CYP2D6; type: in vitro ADME; conditions: for IC50: microsome from insect cells expressing human CYP2D6, fluorescent substrate, 37° C. 30 min, 72 to 0.0329 μmol/L; for Inhibitory effect on CYP2D6 (in words): microsome from insect cells expressing human CYP2D6, 72 to 0.0329 μmol/L
T3 construct: host or cells: insect cells (microsomes)
Method: Inhibitory effects of the compound of Example 3, Comparative Compound 1, Comparative Compound 2 and Comparative Compound 3 on human hepatic drug-metabolizing enzyme CYP2D6 were compared. A microsome prepared from insect cells expressing human CYP2D6 was used, and a substrate was 3-[2-(N,N-diethyl-N-methylammonium)ethyl]-7-methoxy-4-methylcoumarin iodide. The reaction was conducted in a phosphate buffer solution (100 mmol/L, pH 7.4) including final concentrations of 20 nmol/L for the enzyme, 1.5 μmol/L for the substrate, 1.55 mmol/L for nicotinamide adenine dinucleotide phosphate oxidized form (NADP+), 3.3 mmol/L for glucose-6-phosphate, 3.3 mmol/L for magnesium chloride and 0.4 Units/mL for glucose-6-phosphate dehydrogenase (G6PDH). The concentrations of the respective compounds in the reaction solution were prepared in a 3-fold dilution series with a final concentration range of 72 to 0.0329 μmol/L. The reaction solutions were incubated at 37° C. for 30 min. Then the reaction was terminated by a 80% acetonitrile solution (containing tris at a final concentration of 0.1 mol/L), and the enzyme activity was determined by measuring fluorescence with wavelength of 465 nm using excitation wavelength of 400 nm. The inhibitory effect was expressed as IC50. Quinidine was used as a positive control.

[2] = Repeated intravenous dose toxicity study in mice (plasma AST, ALT); type: in vivo; conditions: ICR male mice, i.v. once daily for 3 days (25 mg/kg or 6.25 mg/kg), day 1 after completion; relative to saline control
Method: As Test Compounds, the compound of Example 3, Comparative Compound 2 and Comparative Compound 3 were used.
A repeated intravenous dose toxicity study was conducted using ICR strain male mice (6 week-old, 5 mice/group). The administration solutions were prepared by adding 3-fold molar amount of hydrochloric acid to the respective Test Compounds, and further adding a sterile physiological saline solution. The compounds of Example 3 and Comparative Compound 2, respectively at 25 mg/kg, and Comparative Compound 1 at 6.25 mg/kg were administered into the tail vein once daily for 3 days. To the control group, a sterile physiological saline solution was administered.
On day 1 after the completion of the administration, each mouse was etherized. Blood samples were taken from the abdominal vein using an injection syringe containing heparin as an anticoagulant (Novo-Heparin 1,000 units for injection, Aventis Pharma Ltd.), and the samples were centrifuged (3,300 rpm, 4° C., 10 min; Kubota Model 5900) to obtain the plasma. The blood biochemical tests with respect to aspartate aminotransferase (AST) and alanine aminotransferase (ALT) for the samples were conducted according to the JSCC consensus measuring method. The values for the Test Compounds and Comparative Compounds were calculated based on the values for the control (administration of a sterile physiological saline solution) as 100.

[3] = Acute toxicity study in mice (intravenous administration); type: in vivo; conditions: male mice, 50 mg/kg single intravenous dose
Method: The compound of Example 3 was dissolved in a small amount of 0.1 mol/L hydrochloric acid, and the solution was diluted with a sterile physiological saline solution to obtain a 5 mg/mL solution. The Test Compound solution was administered intravenously to male mice (4 week-old, 2 mice/group) at 10 mL/kg (50 mg/kg body weight) and the mice were observed until day 2 after administration.

[4] = tested on: Candida albicans TIMM 1623; experiment: Murine Candida infection model (subcutaneous administration); type: in vivo; conditions: cyclophosphamide-compromised male mice; 0.1 mg/kg subcutaneously, 4 times; observed 21 days after infection
Method: (§4) As a Test Compound, the compound of Example 3 was used.
Male mice (4 week-old, 5 mice/group) were administered intraperitoneally with 200 mg/kg of cyclophosphamide 4 days before infection and 100 mg/kg on the following day after the infection to obtain transient compromised condition. Candida albicans TIMM 1623 cultured on SDA at 35° C. was suspended in a sterile physiological saline solution to prepare a suspension at 1.5×10^5 cells/mL. Each 0.2 mL of the solution was inoculated into the tail vein of each mouse to induce infection (about 3×10^4 CFU/mouse). The Test Compound was dissolved in a small amount of 0.1 mol/L hydrochloric acid, and the solution was diluted with a sterile physiological saline solution to obtain a 0.01 mg/mL solution. The solution was administered subcutaneously at the dose of 10 mL/kg body weight of mouse (0.1 mg/kg body weight). The administrations were conducted once 2 hours after the infection and once daily for the following consecutive 3 days, totaling 4 times. To a group receiving no Test Compound, an equal amount of a sterile physiological saline solution was administered. Viability of the mice was observed and recorded for 21 days after infection.

[5] = tested on: Aspergillus fumigatus IFM46895; experiment: Murine Aspergillus infection model (subcutaneous administration); type: in vivo; conditions: cyclophosphamide-compromised male mice; 0.3 mg/kg subcutaneously, 7 times; observed 21 days after infection
Method: as §4, §2
as §3, with “Test Compound was” for “Test Compounds were”, “sterile physiological saline solution” for “sterile distilled water”, “a 0.03” for “a 1”, “administered subcutaneously” for “administered orally”, “mouse (0.3” for “mouse (10”, “Test Compound,” for “Test Compounds,”

[6] = Acute toxicity study in mice (oral administration); type: in vivo; conditions: male mice, 1000 mg/kg single oral dose
Method: A 100 mg/mL suspension of the compound of Example 3 was prepared with 0.1 mol/L hydrochloric acid. The Test Compound solution was orally administered to male mice (6 week-old, 2 mice/group) at 10 mL/kg (1000 mg/kg body weight) and the mice were observed until day 2 after administration.

T3 sequence (P10635 whole entry): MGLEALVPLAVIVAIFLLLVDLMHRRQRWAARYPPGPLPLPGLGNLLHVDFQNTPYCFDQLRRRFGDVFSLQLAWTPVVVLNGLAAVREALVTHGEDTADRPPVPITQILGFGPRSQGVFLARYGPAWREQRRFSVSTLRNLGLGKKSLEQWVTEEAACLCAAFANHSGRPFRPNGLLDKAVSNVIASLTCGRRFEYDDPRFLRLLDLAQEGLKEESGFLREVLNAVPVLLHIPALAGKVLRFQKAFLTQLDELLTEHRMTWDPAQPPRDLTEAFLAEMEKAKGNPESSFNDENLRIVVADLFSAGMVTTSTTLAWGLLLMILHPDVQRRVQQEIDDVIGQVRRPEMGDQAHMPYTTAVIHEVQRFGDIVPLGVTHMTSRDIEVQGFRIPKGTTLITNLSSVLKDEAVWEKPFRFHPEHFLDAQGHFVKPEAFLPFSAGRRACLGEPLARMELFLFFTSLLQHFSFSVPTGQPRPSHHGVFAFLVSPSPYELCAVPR
T2 sequence (P08684 whole entry): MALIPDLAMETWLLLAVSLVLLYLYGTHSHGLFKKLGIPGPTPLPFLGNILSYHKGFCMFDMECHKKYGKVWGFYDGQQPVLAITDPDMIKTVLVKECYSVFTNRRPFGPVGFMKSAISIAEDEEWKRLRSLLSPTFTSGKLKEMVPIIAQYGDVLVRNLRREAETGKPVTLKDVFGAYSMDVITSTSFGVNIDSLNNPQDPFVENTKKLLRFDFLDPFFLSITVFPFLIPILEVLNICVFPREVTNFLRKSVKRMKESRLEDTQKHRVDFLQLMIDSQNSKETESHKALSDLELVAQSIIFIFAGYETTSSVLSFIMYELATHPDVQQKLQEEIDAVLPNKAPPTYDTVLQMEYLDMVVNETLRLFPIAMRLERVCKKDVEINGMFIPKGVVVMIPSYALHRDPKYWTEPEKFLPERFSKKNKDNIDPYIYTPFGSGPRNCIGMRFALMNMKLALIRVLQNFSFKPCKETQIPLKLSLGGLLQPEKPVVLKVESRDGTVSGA
T1 sequence (P33261 whole entry): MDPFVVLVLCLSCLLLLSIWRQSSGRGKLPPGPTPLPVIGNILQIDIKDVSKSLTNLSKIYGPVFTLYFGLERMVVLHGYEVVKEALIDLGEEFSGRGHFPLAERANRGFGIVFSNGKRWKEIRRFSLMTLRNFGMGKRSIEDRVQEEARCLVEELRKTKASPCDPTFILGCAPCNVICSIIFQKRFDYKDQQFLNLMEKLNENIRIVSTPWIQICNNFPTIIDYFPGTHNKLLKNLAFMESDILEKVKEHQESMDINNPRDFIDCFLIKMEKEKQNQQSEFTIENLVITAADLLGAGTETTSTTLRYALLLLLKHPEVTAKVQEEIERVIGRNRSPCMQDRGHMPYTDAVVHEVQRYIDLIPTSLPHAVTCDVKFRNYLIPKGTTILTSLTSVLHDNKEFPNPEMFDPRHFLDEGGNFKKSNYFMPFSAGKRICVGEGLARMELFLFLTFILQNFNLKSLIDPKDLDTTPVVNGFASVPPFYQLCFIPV

| Inhibitory effect on CYP2D6 (in words) (human CYP2D6) | Structure (SMILES) | IC50 (human CYP2C19) | IC50 (human CYP3A4) | Cytotoxicity T/C (%) (Vero cells) | mice survived [1] | IC50 (human CYP2D6) | ALT (alanine aminotransferase) in plasma [2] | AST (aspartate aminotransferase) in plasma [2] | also measured |
| --- | --- | --- | --- | --- | --- | --- | --- | --- | --- |
|  | N/C(=N\C(=O)OCc1ccccc1)c1ccc(OCCCN2CCN(CCCOc3ccc(/C(N)=N/C(=O)OCc4ccccc4)cc3)CC2)cc1 [Comparative Compound 1, reference compound] | 4.36 µM | 4.73 µM | 1% | 20% | 680 nM |  |  |  |
| inhibited human CYP2D6 | CCOC(=O)/N=C(\N)c1ccc(OCCCC2CCN(CCCOc3ccc(/C(N)=N/C(=O)OCC)cc3)CC2)cc1 [Comparative Compound 2] |  |  |  |  |  | increases | increases |  |
| inhibited human CYP2D6 | CCCCCOC(=O)/N=C(\N)c1ccc(OCCCN2CCC(CCCOc3ccc(C(N)NC(=O)OCCCCC)cc3)CC2)cc1 (centres unmarked) [Comparative Compound 3] |  |  |  |  |  | increases | increases |  |
|  | CCCOC(=O)/N=C(\N)c1ccc(OCCCC2CCN(CCCOc3ccc(/C(N)=N/C(=O)OCCC)cc3)CC2)cc1 [Example 1, 4-{3-[4-(3-{4-[amino(propoxycarbonylimino)methyl]phenoxy}propyl)-1-piperidinyl]propoxy}-N′-(propoxycarbonyl)benzamidine] |  |  | 100% |  |  |  |  |  |
|  | CC(C)OC(=O)/N=C(\N)c1ccc(OCCCC2CCN(CCCOc3ccc(/C(N)=N/C(=O)OC(C)C)cc3)CC2)cc1 [Example 2, 4-{3-[4-(3-{4-[amino(isopropoxycarbonylimino)methyl]phenoxy}propyl)-1-piperidinyl]propoxy}-N′-(isopropoxycarbonyl)benzamidine] |  |  | 100% |  |  |  |  |  |
|  | CCCCOC(=O)N=C(N)c1ccc(OCCCC2CCN(CCCOc3ccc(C(N)=NC(=O)OCCCC)cc3)CC2)cc1 [Example 3, 4-{3-[4-(3-{4-[amino(butoxycarbonylimino)methyl]phenoxy}propyl)-1-piperidinyl]propoxy}-N′-(butoxycarbonyl)benzamidine] | > 72 µM | 45.4 µM |  | 80% | > 72000 nM | No abnormality | No abnormality | survival until day 2 after administration [3]: all mice survived; mice survived [4]: 80%; mice survived [5]: 60%; survival until day 2 after administration [6]: all mice survived |
